Source: ChEMBL document CHEMBL4138197, “Design, synthesis and pharmacological evaluation of N-(5-chloro-2,4-dihydroxybenzoyl)-(R)-N-arylmethyl-1,2,3,4-tetrahydro-3-isoquinolinecarboxamides as potent Hsp90 inhibitors” (Eur J Med Chem, 2018)
Active and inactive are the calls of the source.

Columns and labels:
[1] = biological target: T1, Heat shock protein HSP90 (Homo sapiens) (UniProt P07900+P08238); test: Inhibition of HSP90 in human MDA-MB-453 cells assessed as downmodulation of IKKalpha expression at 0.25 uM up to 48 hrs by Western blot analysis; type: cell-based
[2] = biological target: MAP kinase p38 (Homo sapiens) (UniProt O15264+Q15759+Q16539+P53778); test: Induction of p38 in human MDA-MB-453 cells assessed as upregulation of Hsp27 Ser82 phosphorylation at Ser82 at 0.25 uM after 2 hrs by Western blot analysis; type: cell-based
MDA-MB-453 [3] = test: Induction of apoptosis in human MDA-MB-453 cells assessed as early apoptotic cells at 1 uM after 48 hrs by Annexin V-FITC/propidium iodide-staining based flow cytometry (reference value: 1.65%); type: functional
MDA-MB-453 [4] = test: Cell cycle arrest in human MDA-MB-453 cells assessed as reduction in accumulation at S phase at 0.25 to 1 uM after 12 hrs by propidium iodide-staining based flow cytometry; type: functional
NCI-H1299 = test: Antiproliferative activity against human NCI-H1299 cells by SRB assay; type: functional, cell-based
MDA-MB-453 [5] = test: Induction of apoptosis in human MDA-MB-453 cells assessed as necrotic cells at 1 uM after 48 hrs by Annexin V-FITC/propidium iodide-staining based flow cytometry (reference value: 0.01%); type: functional
[6] = biological target: Heat shock protein HSP 90-alpha (Homo sapiens) (UniProt P07900); test: Inhibition of HSP90alpha in human MDA-MB-453 cells assessed as down-regulation of HER2 levels by Western blot analysis; type: cell-based
[7] = biological target: Heat shock protein HSP 90-alpha (Homo sapiens) (UniProt P07900); test: Inhibition of HSP90alpha in human MDA-MB-453 cells assessed as down-regulation of AKT levels by Western blot analysis; type: cell-based
HeLa = test: Antiproliferative activity against human HeLa cells by SRB assay; type: functional, cell-based
[8] = biological target: T1, Heat shock protein HSP90 (Homo sapiens); test: Inhibition of HSP90 in human MDA-MB-453 cells assessed as downmodulation of IKKgamma expression at 0.25 uM up to 48 hrs by Western blot analysis; type: cell-based
MDA-MB-453 [9] = test: Effect on Bax protein expression in human MDA-MB-453 cells at 0.25 uM incubated for 6 to 48 hrs by Western blot analysis; type: functional, cell-based
SK-OV-3 = test: Antiproliferative activity against human SKOV3 cells by SRB assay; type: functional, cell-based
U-251 = test: Antiproliferative activity against human U251 cells by SRB assay; type: functional, cell-based
SW480 = test: Antiproliferative activity against human SW480 cells by SRB assay; type: functional, cell-based
MDA-MB-453 [10] = test: Induction of apoptosis in human MDA-MB-453 cells assessed as late apoptotic cells at 1 uM after 48 hrs by Annexin V-FITC/propidium iodide-staining based flow cytometry (reference value: 3.40%); type: functional
MDA-MB-453 [11] = test: Induction of apoptosis in human MDA-MB-453 cells assessed as late apoptotic cells at 4 uM after 48 hrs by Annexin V-FITC/propidium iodide-staining based flow cytometry (reference value: 3.40%); type: functional
[12] = biological target: Heat shock protein HSP 90-alpha (Homo sapiens) (UniProt P07900); test: Binding affinity to HSP90alpha in HEK293T cells assessed as induction of thermal stabilisation of HSP90alpha pre-incubated for 3 hrs followed by heating at 37 to 63 degC for 3 mins then subsequent cooling for 3 mins by Western blot-based CESTA relative to beta actin; type: cell-based
HepG2 = test: Antiproliferative activity against human HepG2 cells by SRB assay; type: functional, cell-based
[13] = biological target: Heat shock protein HSP 90-alpha (Homo sapiens) (UniProt P07900); test: Inhibition of HSP90alpha in human MDA-MB-453 cells assessed as down-regulation of CHK1 levels by Western blot analysis; type: cell-based
MDA-MB-231 [14] = test: Antiproliferative activity against human MDA-MB-231 cells by SRB assay; type: functional, cell-based
A549 [15] = test: Antiproliferative activity against human A549 cells by SRB assay; type: functional, cell-based
MDA-MB-453 [16] = test: Induction of apoptosis in human MDA-MB-453 cells assessed as increase in cleaved caspase7 activity at 0.25 uM up to 48 hrs in presence of z-VAD-fmk by Western blot analysis; type: functional, cell-based
MDA-MB-453 [17] = test: Induction of apoptosis in human MDA-MB-453 cells after 48 hrs by Annexin V-FITC/propidium iodide-staining based flow cytometry; type: functional, cell-based
[18] = biological target: Heat shock protein HSP 90-alpha (Homo sapiens) (UniProt P07900); test: Inhibition of HSP90alpha in human MDA-MB-453 cells assessed as down-regulation of CDK4 levels by Western blot analysis; type: cell-based
MDA-MB-453 [19] = test: Induction of apoptosis in human MDA-MB-453 cells assessed downregulation of bcl-xl expression at 0.25 uM at 48 hrs by Western blot analysis; type: functional, cell-based
SH-SY5Y = test: Antiproliferative activity against human SH-SY5Y cells by SRB assay; type: functional, cell-based
MDA-MB-453 [20] = test: Induction of apoptosis in human MDA-MB-453 cells assessed upregulation of bim expression at 0.25 uM by Western blot analysis; type: functional, cell-based; details: TDE = time-dependent effect
MDA-MB-453 [21] = test: Induction of apoptosis in human MDA-MB-453 cells assessed as increase in cleaved caspase3 activity at 0.25 uM up to 48 hrs in presence of z-VAD-fmk by Western blot analysis; type: functional, cell-based
[22] = biological target: T1, Heat shock protein HSP90 (Homo sapiens); test: Inhibition of HSP90 in human MDA-MB-453 cells assessed as suppression of TNFalpha-induced NFkappaB activation by measuring reduction in relA/p65 translocation to the nucleus at 0.25 uM after 24 hrs by Western blot analysis; type: cell-based
[23] = biological target: Heat shock protein HSP 90-alpha (Homo sapiens) (UniProt P07900); test: Binding affinity to HSP90alpha in HEK293T cells assessed as induction of thermal stabilisation of HSP90alpha at 10 uM pre-incubated for 3 hrs followed by heating at 37 to 63 degC for 3 mins then subsequent cooling for 3 mins by Western blot-based CESTA relative to beta actin; type: cell-based
MDA-MB-453 [24] = test: Induction of apoptosis in human MDA-MB-453 cells assessed downregulation of bcl2 expression at 0.25 uM at 48 hrs by Western blot analysis; type: functional, cell-based
[25] = biological target: Heat shock protein HSP 90-alpha (Homo sapiens) (UniProt P07900); test: Inhibition of HSP90alpha in human MDA-MB-453 cells assessed as down-regulation of C-RAF levels by Western blot analysis; type: cell-based
A549 [26] = test: Antiproliferative activity against human A549 cells after 72 hrs by SRB assay; type: functional, cell-based; details: A549, 72 h
MDA-MB-453 [27] = test: Induction of apoptosis in human MDA-MB-453 cells assessed upregulation of bid expression at 0.25 uM by Western blot analysis; type: functional, cell-based; details: TDE = time-dependent effect
[28] = biological target: Heat shock protein HSP 90-alpha (Homo sapiens) (UniProt P07900); test: Inhibition of HSP90alpha in human MDA-MB-453 cells assessed as down-regulation of cdc2 levels by Western blot analysis; type: cell-based
MDA-MB-231 [29] = test: Antiproliferative activity against human MDA-MB-231 cells after 72 hrs by SRB assay; type: functional, cell-based; details: MDA-MB-231, 72 h
MDA-MB-453 [30] = test: Induction of apoptosis in human MDA-MB-453 cells assessed as necrotic cells at 4 uM after 48 hrs by Annexin V-FITC/propidium iodide-staining based flow cytometry (reference value: 0.01%); type: functional
MDA-MB-453 [31] = test: Induction of apoptosis in human MDA-MB-453 cells assessed as late apoptotic cells at 0.25 uM after 48 hrs by Annexin V-FITC/propidium iodide-staining based flow cytometry (reference value: 3.40%); type: functional

O=C(NCc1ccncc1)[C@H]1Cc2ccccc2CN1C(=O)c1cc(Cl)c(O)cc1O
0.54%: Activity (MDA-MB-453 [30])
300 nM: IC50 (MDA-MB-231 [29])
15.11%: Activity (MDA-MB-453 [10])
4.19%: Activity (MDA-MB-453 [31])
active: inhibition [1] | Activity [2] | Activity (MDA-MB-453 [4]) | Activity (NCI-H1299) | inhibition [6] Dose-dependent effect | inhibition [7] Dose-dependent effect | Activity (HeLa) | inhibition [8] | Activity (SK-OV-3) | Activity (U-251) | Activity (SW480) | Activity [12] Dose-dependent effect | Activity (HepG2) | inhibition [13] Dose-dependent effect | Activity (MDA-MB-231 [14]) | Activity (A549 [15]) | Activity (MDA-MB-453 [17]) Dose-dependent effect | inhibition [18] Dose-dependent effect | Activity (MDA-MB-453 [19]) | Activity (SH-SY5Y) | Activity (MDA-MB-453 [20]) Tde | inhibition [22] | Activity [23] | Activity (MDA-MB-453 [24]) | inhibition [25] Dose-dependent effect | Activity (MDA-MB-453 [27]) Tde | inhibition [28] Dose-dependent effect
0.03%: Activity (MDA-MB-453 [5])
18.32%: Activity (MDA-MB-453 [11])
420 nM: IC50 (A549 [26])
inactive: Activity (MDA-MB-453 [9]) | Activity (MDA-MB-453 [16]) | Activity (MDA-MB-453 [21])
15.88%: Activity (MDA-MB-453 [3])
